Results taken from patent US7449447B2, “Peptidomimetic NS3-serine protease inhibitors of hepatitis C virus” (priority 2003, dated 2008).

target: T1, HCV NS3/NS4a serine protease (Hepatitis C virus genotype 1b, UniProt P26663); assay: Spectrophotometric assay for HCV protease inhibitory activity (chromogenic ester substrates); format: biochemical, hepatitis C virus (strain 1b); conditions: Ki, Table 3; rating; single chain NS4A21-32-GSGS-NS3 3-181 protease, 30° C., pH 6.5
T1 construct: amino terminus of the NS3 protease domain (amino acids 3-181) with a tetrapeptide linker; made in house; host or cells: E. coli
T1 sequence (P26663 1013-1207, looked up, natural form): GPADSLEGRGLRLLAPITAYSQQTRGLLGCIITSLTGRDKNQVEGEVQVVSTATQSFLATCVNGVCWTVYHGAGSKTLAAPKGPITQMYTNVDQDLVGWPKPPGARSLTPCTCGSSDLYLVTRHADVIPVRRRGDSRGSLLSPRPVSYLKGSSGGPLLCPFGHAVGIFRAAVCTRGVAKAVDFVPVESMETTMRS
Method in brief: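 Single-chain NS4A(21-32)-GSGS-NS3(3-181) protease (genotype 1b) from E. coli was used at 1.3 nM in 25 mM MOPS pH 6.5 with 300 mM NaCl, 30 °C and 4% DMSO. Chromogenic ester substrate cleavage was followed as PAP release at 370 nm over 60 min. Ki was derived from vo/vi versus [I] plots assuming competitive inhibition.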

SMILES	Ki
CN(C[C@@H](NC(=O)N[C@H](C(=O)N1C[C@H]2[C@@H]([C@H]1C(=O)N[C@@H](CC(F)F)C(=O)NCCc1ccccc1)C2(C)C)C(C)(C)C)C(C)(C)C)S(C)(=O)=O [Example 258]	< 100 nM
Cc1ccccc1CCNC(=O)[C@H](CC(F)F)NC(=O)[C@@H]1[C@@H]2[C@H](CN1C(=O)[C@@H](NC(=O)N[C@H](CN(C)S(C)(=O)=O)C(C)(C)C)C(C)(C)C)C2(C)C [Example 259]	< 100 nM
Cc1cccc(CCNC(=O)[C@H](CC(F)F)NC(=O)[C@@H]2[C@@H]3[C@H](CN2C(=O)[C@@H](NC(=O)N[C@H](CN(C)S(C)(=O)=O)C(C)(C)C)C(C)(C)C)C3(C)C)c1 [Example 260]	< 100 nM
Cc1ccc(CCNC(=O)[C@H](CC(F)F)NC(=O)[C@@H]2[C@@H]3[C@H](CN2C(=O)[C@@H](NC(=O)N[C@H](CN(C)S(C)(=O)=O)C(C)(C)C)C(C)(C)C)C3(C)C)cc1 [Example 261]	< 100 nM
CN(C[C@@H](NC(=O)N[C@H](C(=O)N1C[C@H]2[C@@H]([C@H]1C(=O)N[C@@H](CC(F)F)C(=O)NCCc1ccc(N)cc1)C2(C)C)C(C)(C)C)C(C)(C)C)S(C)(=O)=O [Example 262]	< 100 nM
CN(C[C@@H](NC(=O)N[C@H](C(=O)N1C[C@H]2[C@@H]([C@H]1C(=O)N[C@@H](CC(F)F)C(=O)NCCc1ccccc1F)C2(C)C)C(C)(C)C)C(C)(C)C)S(C)(=O)=O [Example 263]	< 100 nM
CN(C[C@@H](NC(=O)N[C@H](C(=O)N1C[C@H]2[C@@H]([C@H]1C(=O)N[C@@H](CC(F)F)C(=O)NCCc1cccc(F)c1)C2(C)C)C(C)(C)C)C(C)(C)C)S(C)(=O)=O [Example 264]	< 100 nM
CN(C[C@@H](NC(=O)N[C@H](C(=O)N1C[C@H]2[C@@H]([C@H]1C(=O)N[C@@H](CC(F)F)C(=O)NCCc1ccc(F)cc1)C2(C)C)C(C)(C)C)C(C)(C)C)S(C)(=O)=O [Example 265]	< 100 nM
Cc1ccc(CCNC(=O)[C@H](CC(F)F)NC(=O)[C@@H]2[C@@H]3[C@H](CN2C(=O)[C@@H](NC(=O)N[C@H](CN(C)S(C)(=O)=O)C(C)(C)C)C(C)(C)C)C3(C)C)c(C)c1 [Example 266]	< 100 nM
Cc1ccc(CCNC(=O)[C@H](CC(F)F)NC(=O)[C@@H]2[C@@H]3[C@H](CN2C(=O)[C@@H](NC(=O)N[C@H](CN(C)S(C)(=O)=O)C(C)(C)C)C(C)(C)C)C3(C)C)cc1C [Example 267]	< 100 nM
CCc1ccc(CCNC(=O)[C@H](CC(F)F)NC(=O)[C@@H]2[C@@H]3[C@H](CN2C(=O)[C@@H](NC(=O)N[C@H](CN(C)S(C)(=O)=O)C(C)(C)C)C(C)(C)C)C3(C)C)cc1 [Example 268]	< 100 nM
COc1ccccc1CCNC(=O)[C@H](CC(F)F)NC(=O)[C@@H]1[C@@H]2[C@H](CN1C(=O)[C@@H](NC(=O)N[C@H](CN(C)S(C)(=O)=O)C(C)(C)C)C(C)(C)C)C2(C)C [Example 269]	< 100 nM
COc1cccc(CCNC(=O)[C@H](CC(F)F)NC(=O)[C@@H]2[C@@H]3[C@H](CN2C(=O)[C@@H](NC(=O)N[C@H](CN(C)S(C)(=O)=O)C(C)(C)C)C(C)(C)C)C3(C)C)c1 [Example 270]	< 100 nM
COc1ccc(CCNC(=O)[C@H](CC(F)F)NC(=O)[C@@H]2[C@@H]3[C@H](CN2C(=O)[C@@H](NC(=O)N[C@H](CN(C)S(C)(=O)=O)C(C)(C)C)C(C)(C)C)C3(C)C)cc1 [Example 271]	< 100 nM
CN(C[C@@H](NC(=O)N[C@H](C(=O)N1C[C@H]2[C@@H]([C@H]1C(=O)N[C@@H](CC(F)F)C(=O)NCCc1ccc3c(c1)OCO3)C2(C)C)C(C)(C)C)C(C)(C)C)S(C)(=O)=O [Example 272]	< 100 nM
CCOc1ccccc1CCNC(=O)[C@H](CC(F)F)NC(=O)[C@@H]1[C@@H]2[C@H](CN1C(=O)[C@@H](NC(=O)N[C@H](CN(C)S(C)(=O)=O)C(C)(C)C)C(C)(C)C)C2(C)C [Example 273]	< 100 nM
CCOc1ccc(CCNC(=O)[C@H](CC(F)F)NC(=O)[C@@H]2[C@@H]3[C@H](CN2C(=O)[C@@H](NC(=O)N[C@H](CN(C)S(C)(=O)=O)C(C)(C)C)C(C)(C)C)C3(C)C)cc1 [Example 274]	< 100 nM
CN(C[C@@H](NC(=O)N[C@H](C(=O)N1C[C@H]2[C@@H]([C@H]1C(=O)N[C@@H](CC(F)F)C(=O)NCCc1c(F)cccc1Cl)C2(C)C)C(C)(C)C)C(C)(C)C)S(C)(=O)=O [Example 275]	< 100 nM
CN(C[C@@H](NC(=O)N[C@H](C(=O)N1C[C@H]2[C@@H]([C@H]1C(=O)N[C@@H](CC(F)F)C(=O)NCCc1ccc(C(C)(C)C)cc1)C2(C)C)C(C)(C)C)C(C)(C)C)S(C)(=O)=O [Example 276]	< 100 nM
COc1cccc(CCNC(=O)[C@H](CC(F)F)NC(=O)[C@@H]2[C@@H]3[C@H](CN2C(=O)[C@@H](NC(=O)N[C@H](CN(C)S(C)(=O)=O)C(C)(C)C)C(C)(C)C)C3(C)C)c1OC [Example 277]	100 to 500 nM
COc1cc(CCNC(=O)[C@H](CC(F)F)NC(=O)[C@@H]2[C@@H]3[C@H](CN2C(=O)[C@@H](NC(=O)N[C@H](CN(C)S(C)(=O)=O)C(C)(C)C)C(C)(C)C)C3(C)C)cc(OC)c1 [Example 278]	100 to 500 nM

SMILES	Ki
COc1ccc(OC)c(CCNC(=O)[C@H](CC(F)F)NC(=O)[C@@H]2[C@@H]3[C@H](CN2C(=O)[C@@H](NC(=O)N[C@H](CN(C)S(C)(=O)=O)C(C)(C)C)C(C)(C)C)C3(C)C)c1 [Example 279]	100 to 500 nM
COc1ccc(CCNC(=O)[C@H](CC(F)F)NC(=O)[C@@H]2[C@@H]3[C@H](CN2C(=O)[C@@H](NC(=O)N[C@H](CN(C)S(C)(=O)=O)C(C)(C)C)C(C)(C)C)C3(C)C)cc1OC [Example 280]	< 100 nM
COc1ccc(CCNC(=O)[C@H](CC(F)F)NC(=O)[C@@H]2[C@@H]3[C@H](CN2C(=O)[C@@H](NC(=O)N[C@H](CN(C)S(C)(=O)=O)C(C)(C)C)C(C)(C)C)C3(C)C)cc1Cl [Example 281]	< 100 nM
CN(C[C@@H](NC(=O)N[C@H](C(=O)N1C[C@H]2[C@@H]([C@H]1C(=O)N[C@@H](CC(F)F)C(=O)NCCc1cccc(C(F)(F)F)c1)C2(C)C)C(C)(C)C)C(C)(C)C)S(C)(=O)=O [Example 282]	< 100 nM
CN(C[C@@H](NC(=O)N[C@H](C(=O)N1C[C@H]2[C@@H]([C@H]1C(=O)N[C@@H](CC(F)F)C(=O)NCCc1ccc(Cl)cc1Cl)C2(C)C)C(C)(C)C)C(C)(C)C)S(C)(=O)=O [Example 283]	< 100 nM
CN(C[C@@H](NC(=O)N[C@H](C(=O)N1C[C@H]2[C@@H]([C@H]1C(=O)N[C@@H](CC(F)F)C(=O)NCCc1c(Cl)cccc1Cl)C2(C)C)C(C)(C)C)C(C)(C)C)S(C)(=O)=O [Example 284]	< 100 nM
CN(C[C@@H](NC(=O)N[C@H](C(=O)N1C[C@H]2[C@@H]([C@H]1C(=O)N[C@@H](CC(F)F)C(=O)NCCc1ccc(Cl)c(Cl)c1)C2(C)C)C(C)(C)C)C(C)(C)C)S(C)(=O)=O [Example 285]	< 100 nM
CCOc1cc(CCNC(=O)[C@H](CC(F)F)NC(=O)[C@@H]2[C@@H]3[C@H](CN2C(=O)[C@@H](NC(=O)N[C@H](CN(C)S(C)(=O)=O)C(C)(C)C)C(C)(C)C)C3(C)C)ccc1OC [Example 286]	< 100 nM
CCOc1ccc(CCNC(=O)[C@H](CC(F)F)NC(=O)[C@@H]2[C@@H]3[C@H](CN2C(=O)[C@@H](NC(=O)N[C@H](CN(C)S(C)(=O)=O)C(C)(C)C)C(C)(C)C)C3(C)C)cc1OC [Example 287]	< 100 nM
CN(C[C@@H](NC(=O)N[C@H](C(=O)N1C[C@H]2[C@@H]([C@H]1C(=O)N[C@@H](CC(F)F)C(=O)NCCc1ccc(-c3ccccc3)cc1)C2(C)C)C(C)(C)C)C(C)(C)C)S(C)(=O)=O [Example 288]	< 100 nM
CN(C[C@@H](NC(=O)N[C@H](C(=O)N1C[C@H]2[C@@H]([C@H]1C(=O)N[C@@H](CC(F)F)C(=O)NCCc1ccccc1Br)C2(C)C)C(C)(C)C)C(C)(C)C)S(C)(=O)=O [Example 289]	< 100 nM
CN(C[C@@H](NC(=O)N[C@H](C(=O)N1C[C@H]2[C@@H]([C@H]1C(=O)N[C@@H](CC(F)F)C(=O)NCCc1ccc(Br)cc1)C2(C)C)C(C)(C)C)C(C)(C)C)S(C)(=O)=O [Example 290]	< 100 nM
CN(C[C@@H](NC(=O)N[C@H](C(=O)N1C[C@H]2[C@@H]([C@H]1C(=O)N[C@@H](CC(F)F)C(=O)NCCc1ccc(Oc3ccccc3)cc1)C2(C)C)C(C)(C)C)C(C)(C)C)S(C)(=O)=O [Example 291]	< 100 nM
COc1ccc(CCNC(=O)[C@H](CC(F)F)NC(=O)[C@@H]2[C@@H]3[C@H](CN2C(=O)[C@@H](NC(=O)N[C@H](CN(C)S(C)(=O)=O)C(C)(C)C)C(C)(C)C)C3(C)C)cc1Br [Example 292]	< 100 nM
CN(C[C@@H](NC(=O)N[C@H](C(=O)N1C[C@H]2[C@@H]([C@H]1C(=O)N[C@@H](CC(F)F)C(=O)N[C@H]1C[C@@H]1c1ccccc1)C2(C)C)C(C)(C)C)C(C)(C)C)S(C)(=O)=O [Example 293]	> 500 nM
COc1cc(CCNC(=O)[C@H](CC(F)F)NC(=O)[C@@H]2[C@@H]3[C@H](CN2C(=O)[C@@H](NC(=O)N[C@H](CN(C)S(C)(=O)=O)C(C)(C)C)C(C)(C)C)C3(C)C)ccc1O [Example 294]	< 100 nM
COc1ccc(CCNC(=O)[C@H](CC(F)F)NC(=O)[C@@H]2[C@@H]3[C@H](CN2C(=O)[C@@H](NC(=O)N[C@H](CN(C)S(C)(=O)=O)C(C)(C)C)C(C)(C)C)C3(C)C)cc1O [Example 295]	< 100 nM
CC(Cc1ccc(Cl)cc1)NC(=O)[C@H](CC(F)F)NC(=O)[C@@H]1[C@@H]2[C@H](CN1C(=O)[C@@H](NC(=O)N[C@H](CN(C)S(C)(=O)=O)C(C)(C)C)C(C)(C)C)C2(C)C (some centres unmarked) [Example 296]	100 to 500 nM
COc1cc(CCNC(=O)[C@H](CC(F)F)NC(=O)[C@@H]2[C@@H]3[C@H](CN2C(=O)[C@@H](NC(=O)N[C@H](CN(C)S(C)(=O)=O)C(C)(C)C)C(C)(C)C)C3(C)C)cc(OC)c1O [Example 297]	100 to 500 nM
CN(C[C@@H](NC(=O)N[C@H](C(=O)N1C[C@H]2[C@@H]([C@H]1C(=O)N[C@@H](CC(F)F)C(=O)NCCc1ccc(O)c(O)c1)C2(C)C)C(C)(C)C)C(C)(C)C)S(C)(=O)=O [Example 298]	< 100 nM
